From US8883782B2, “Spiro-tetracyclic ring compounds as beta-secretase modulators and methods of use” (Amgen Inc., priority 2010, dated 2014)
Like-named read-outs stand apart in the source and are kept apart here.

Columns and labels:
[1] = molecular target: Beta Secretase enzyme (BACE) (Homo sapiens, UniProt P56817); test: In vitro enzymatic BACE FRET (fluorescence resonance energy transfer) assay; assay type: biochemical; conditions: average IC50, enzyme assay; read-out: BACE 1 FRET assay
How it was run: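 Fluorescence read after Tris quench to neutral pH. Reaction: 50 nM fluorophore/quencher peptide substrate, 1 h, in 0.05 M acetate pH 4.2, 10% DMSO final, 100 uM genapol.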

[2] = test system: Aβ40 in conditioned medium of cells stably expressing Amyloid Precursor Protein (APP); test: In vitro BACE cell-based assay (Aβ40 in conditioned medium, sandwich ELISA); conditions: read-out: HEK cell assay
How it was run: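 The sandwich ELISA pairs pAb40 capture (3 h, 4 °C) with 6E10 detection (2 h, 4 °C) and a streptavidin-europium TRF read-out. Supernatants come from APP-expressing cells grown in 10% FBS DMEM.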

[3] = Homo sapiens, HEK293, average IC50, HEK cells
[4] = Homo sapiens, HEK293, average IC50

Chain of Beta Secretase enzyme (BACE) (P56817 46-501, species assumed): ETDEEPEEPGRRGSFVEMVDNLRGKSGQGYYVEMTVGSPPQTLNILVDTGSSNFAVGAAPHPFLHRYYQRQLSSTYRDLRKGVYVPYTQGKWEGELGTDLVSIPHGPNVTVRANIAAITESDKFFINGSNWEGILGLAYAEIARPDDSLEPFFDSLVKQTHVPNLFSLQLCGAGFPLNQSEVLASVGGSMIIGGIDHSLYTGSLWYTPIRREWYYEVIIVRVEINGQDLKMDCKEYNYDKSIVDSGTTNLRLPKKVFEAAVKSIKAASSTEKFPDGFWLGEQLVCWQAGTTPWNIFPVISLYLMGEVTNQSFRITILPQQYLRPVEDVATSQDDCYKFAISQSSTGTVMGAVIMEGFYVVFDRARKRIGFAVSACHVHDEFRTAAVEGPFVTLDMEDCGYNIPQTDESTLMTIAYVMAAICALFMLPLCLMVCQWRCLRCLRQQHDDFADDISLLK

| Compound | IC50 [1] [nM] | IC50 [2, 3] [nM] | IC50 [2, 4] [nM] | IC50 ([2]; average IC50) [nM] |
| --- | --- | --- | --- | --- |
| NC1=N[C@@]2(CO1)c1cc(-c3ccc(F)cc3)ccc1Oc1cnc(-c3ccnc(F)c3)cc12 [Example 395, (5S)-7-(4-fluorophenyl)-3-(2-fluoro-4-pyridinyl)spiro[chromeno[2,3-c]pyridine-5,4′-[1,3]oxazol]-2′-amine] | 23.7 | 335 |  |  |
| NC1=N[C@@]2(CS1)c1cc(-c3cccnc3F)ccc1Oc1ncc(-c3cccnc3)cc12 [Example 765, (5S)-7-(2-fluoro-3-pyridinyl)-3-(3-pyridinyl)spiro[chromeno[2,3-b]pyridine-5,4′-[1,3]thiazol]-2′-amine] | 1 |  | 8 |  |
| COc1ncccc1-c1ccc2c(c1)[C@@]1(COC(N)=N1)c1cc(C3=CCOCC3)ncc1O2 [Example 240, (5S)-3-(3,6-dihydro-2H-pyran-4-yl)-7-(2-methoxy-3-pyridinyl)spiro[chromeno[2,3-c]pyridine-5,4′-[1,3]oxazol]-2′-amine] | 17.3 |  | 108 |  |
| COc1nc(N2CCC(F)(F)CC2)cc2c1Oc1ccc(-c3cccnc3F)cc1[C@@]21COC(N)=N1 [Example 849, (5S)-3-(4,4-difluoro-1-piperidinyl)-7-(2-fluoro-3-pyridinyl)-1-methoxyspiro[chromeno[2,3-c]pyridine-5,4′-[1,3]oxazol]-2′-amine] | 4.2 | 78 |  |  |
| NC1=N[C@@]2(CO1)c1cc(-c3cnccc3F)ccc1Oc1cnc(Cl)cc12 [Example 390, (5S)-3-chloro-7-(4-fluoro-3-pyridinyl)spiro[chromeno[2,3-c]pyridine-5,4′-[1,3]oxazol]-2′-amine] | 102 | 640 |  |  |
| N#Cc1cccc(-c2ccc3c(c2)[C@@]2(COC(N)=N2)c2cc(N4CCOCC4)ncc2O3)c1 [Example 895, 3-((5S)-2′-amino-3-(4-morpholinyl)spiro[chromeno[2,3-c]pyridine-5,4′-[1,3]oxazol]-7-yl)benzonitrile] | 2.4 | 8 |  |  |
| NC1=N[C@]2(CS1)c1cc(I)ccc1Oc1ncc(Br)cc12 [Example 579, (5R)-3-bromo-7-iodospiro[chromeno[2,3-b]pyridine-5,4′-[1,3]thiazol]-2′-amine] | 1930 | 3180 |  |  |
| (5R)-3-bromo-7-iodospiro[chromeno[2,3-b]pyridine-5,4′-[1,3]oxazol]-2′-amine, (5S)-3-bromo-7-iodospiro[chromeno[2,3-b]pyridine-5,4′-[1,3]oxazol]-2′-amine [Example 762] | 4 |  |  | 85 |
| CC#Cc1cncc(-c2ccc3c(c2)[C@@]2(COC(N)=N2)c2cc(-c4ccc(C)nc4)nc(F)c2O3)c1 [Example 741, (5S)-1-fluoro-3-(6-methyl-3-pyridinyl)-7-(5-(1-propyn-1-yl)-3-pyridinyl)spiro[chromeno[2,3-c]pyridine-5,4′-[1,3]oxazol]-2′-amine] | 0.4 |  | 4 |  |
| C[Si](C)(C)c1cc2c(nc1F)Oc1ccc(Br)cc1[C@@]21COC(N)=N1 [Example 90, (5S)-7-bromo-2-fluoro-3-(trimethylsilyl)spiro[chromeno[2,3-b]pyridine-5,4′-[1,3]oxazol]-2′-amine] | 862 |  | 10000 |  |
| NC1=N[C@@]2(CO1)c1cc(-c3cc(Cl)cnc3F)ccc1Oc1cnc(C3=CCOCC3)cc12 [Example 361, (5S)-7-(5-chloro-2-fluoro-3-pyridinyl)-3-(3,6-dihydro-2H-pyran-4-yl)spiro[chromeno[2,3-c]pyridine-5,4′-[1,3]oxazol]-2′-amine] | 0.5 |  | 6.1 |  |
| COc1nc(-c2cccnc2)cc2c1Oc1ccc(-c3cccnc3)cc1[C@@]21COC(N)=N1 [Example 490, (5S)-1-methoxy-3,7-di-3-pyridinylspiro[chromeno[2,3-c]pyridine-5,4′-[1,3]oxazol]-2′-amine] | 7 | 22.6 |  |  |

Continued by falling IC50 [1], values first:

| IC50 [1] [nM] | IC50 [2, 3] [nM] | IC50 [2, 4] [nM] | Compound | IC50 ([2]; average IC50) [nM] |
| --- | --- | --- | --- | --- |
| 1000 | 6670 |  | COc1ccc2c(c1)[C@@]1(COC(N)=N1)c1cc(-n3ccc(C)n3)cc(F)c1O2 [Example 664, (4S)-4′-fluoro-7′-methoxy-2′-(3-methyl-1H-pyrazol-1-yl)spiro[1,3-oxazole-4,9′-xanthen]-2-amine] |  |
| 836 |  | 535 | CC(C)(C)C#Cc1cnc2c(c1)[C@@]1(COC(N)=N1)c1c(ccc(-c3cncnc3)c1F)O2 [Example 337, (5S)-3-(3,3-dimethyl-1-butyn-1-yl)-6-fluoro-7-(5-pyrimidinyl)spiro[chromeno[2,3-b]pyridine-5,4′-[1,3]oxazol]-2′-amine] |  |
| 301 | 326 |  | NC1=N[C@]2(CO1)c1cc(-c3cccnc3)ccc1Oc1c2cc(-c2cccnc2)nc1F [Example 486, (5R)-1-fluoro-3,7-di-3-pyridinylspiro[chromeno[2,3-c]pyridine-5,4′-[1,3]oxazol]-2′-amine] |  |
| 137 | 3220 |  | NC1=N[C@]2(CO1)c1cc(-c3cccnc3F)ccc1Oc1nc(F)c(C3=CCCOC3)cc12 [Example 902, (5R)-3-(5,6-dihydro-2H-pyran-3-yl)-2-fluoro-7-(2-fluoro-3-pyridinyl)spiro[chromeno[2,3-b]pyridine-5,4′-[1,3]oxazol]-2′-amine] |  |
| 55.3 | 2310 |  | NC1=N[C@@]2(CO1)c1cc(-c3cccc(Cl)c3)ccc1Oc1cnc(Cl)cc12 [Example 528, (5S)-3-chloro-7-(3-chlorophenyl)spiro[chromeno[2,3-c]pyridine-5,4′-[1,3]oxazol]-2′-amine] |  |
| 18 | 852 |  | CC1(C#Cc2cc(F)c3c(c2)C2(COC(N)=N2)c2cc(-c4cncc(F)c4)ncc2O3)COC1 (stereo not shown) [Example 661, 9-fluoro-3-(5-fluoro-3-pyridinyl)-7-((3-methyl-3-oxetanyl)ethynyl)spiro[chromeno[2,3-c]pyridine-5,4′-[1,3]oxazol]-2′-amine] |  |
| 16.5 |  | 851 | Cc1ccnn1-c1cnc2c(c1)[C@]1(COC(N)=N1)c1cc(-c3cccnc3F)ccc1O2 [Example 1020, (5S)-7-(2-fluoro-3-pyridinyl)-3-(5-methyl-1H-pyrazol-1-yl)spiro[chromeno[2,3-b]pyridine-5,4′-[1,3]oxazol]-2′-amine] |  |
| 15.5 |  | 70 | COc1nc(C2CCCOC2)cc2c1Oc1ccc(-c3cccnc3)cc1[C@@]21COC(N)=N1 (stereo partly drawn) [Example 845, (5S)-1-methoxy-7-(3-pyridinyl)-3-(tetrahydro-2H-pyran-3-yl)spiro[chromeno[2,3-c]pyridine-5,4′-[1,3]oxazol]-2′-amine] |  |
| 12.1 |  | 40 | NC1=N[C@@]2(CO1)c1cc(-c3cccnc3F)ccc1Oc1ncc([C@@H]3CCCOC3)cc12 [Example 174, (5S)-7-(2-fluoro-3-pyridinyl)-3-((3S)-tetrahydro-2H-pyran-3-yl)spiro[chromeno[2,3-b]pyridine-5,4′-[1,3]oxazol]-2′-amine] |  |
| 3.5 |  | 119 | Cc1ccn(-c2cnc3c(c2)[C@]2(COC(N)=N2)c2cc(-c4cccnc4F)ccc2O3)n1 [Example 1021, (5S)-7-(2-fluoro-3-pyridinyl)-3-(3-methyl-1H-pyrazol-1-yl)spiro[chromeno[2,3-b]pyridine-5,4′-[1,3]oxazol]-2′-amine] |  |
| 1.7 |  | 32 | CC(C)(C#N)COc1cc2c(c(F)c1F)Oc1ccc(-c3cccnc3)cc1[C@@]21COC(N)=N1 [Example 1009, 3-(((4S)-2-amino-3′,4′-difluoro-7′-(3-pyridinyl)spiro[1,3-oxazole-4,9′-xanthen]-2′-yl)oxy)-2,2-dimethylpropanenitrile] |  |
| 1.2 | 15.1 |  | Cc1cnc(F)c(-c2ccc3c(c2)[C@@]2(COC(N)=N2)c2cc(N4CCC(F)(F)CC4)ncc2O3)c1 [Example 420, (5S)-3-(4,4-difluoro-1-piperidinyl)-7-(2-fluoro-5-methyl-3-pyridinyl)spiro[chromeno[2,3-c]pyridine-5,4′-[1,3]oxazol]-2′-amine] |  |
| 1.1 |  | 7.7 | NC1=N[C@@]2(CO1)c1cc(-c3cccnc3F)ccc1Oc1c(F)cc(-c3ccncc3)cc12 [Example 203, (4S)-4′-fluoro-7′-(2-fluoro-3-pyridinyl)-2′-(4-pyridinyl)spiro[1,3-oxazole-4,9′-xanthen]-2-amine] |  |
| 0.5 |  | 5.9 | CC(C)(C#N)COc1cc(F)c2c(c1)[C@]1(COC(N)=N1)c1cc(-c3cncc(F)c3)ccc1O2 [Example 272, 3-(((4S)-2-amino-4′-fluoro-7′-(5-fluoro-3-pyridinyl)spiro[1,3-oxazole-4,9′-xanthen]-2′-yl)oxy)-2,2-dimethylpropanenitrile] |  |
| 0.5 | 8 |  | NC1=N[C@@]2(CO1)c1cc(-c3cccnc3F)ccc1Oc1c2cc([C@H]2CCCCO2)nc1F [Example 660, (5S)-1-fluoro-7-(2-fluoro-3-pyridinyl)-3-((2R)-tetrahydro-2H-pyran-2-yl)spiro[chromeno[2,3-c]pyridine-5,4′-[1,3]oxazol]-2′-amine] |  |
| 0.4 | 5 |  | NC1=N[C@@]2(CO1)c1cc(-c3cccnc3F)ccc1Oc1c2cc(C2=CCCCO2)nc1F [Example 657, (5S)-3-(3,4-dihydro-2H-pyran-6-yl)-1-fluoro-7-(2-fluoro-3-pyridinyl)spiro[chromeno[2,3-c]pyridine-5,4′-[1,3]oxazol]-2′-amine] |  |
| 0.4 |  | 5 | NC1=N[C@@]2(CS1)c1cc(-c3cccnc3F)ccc1Oc1c(F)cc(N3CC4CC3CO4)cc12 (stereo partly drawn) [Example 1078, (4S)-4′-fluoro-7′-(2-fluoro-3-pyridinyl)-2′-(2-oxa-5-azabicyclo[2.2.1]hept-5-yl)spiro[1,3-thiazole-4,9′-xanthen]-2-amine] |  |
